Assay results published in patent US20250011792A1, “IRAP INHIBITORS FOR USE IN THE TREATMENT OF INFLAMMATORY DISEASES” (INSTITUT NATIONAL DE LA SANTÉ ET DE LA RECHERCHE MÉDICALE, priority 2021, published 2025).

Assays:
mast cells = test: Cytokine secretion by mast cells treated with IRAP inhibitors for 24 h before ionomycin/PMA activation; assay type: cell-based, mouse; conditions: mast cells treated for 24 h prior to ionomycin/PMA activation; data not shown
Protocol: PCMCs were stimulated with 1 uM ionomycin/10 nM PMA or 100 ng/ml LPS at 37° C. for 6 h for cytokine secretion or with ionomycin/PMA or 10 ug/ml 48/80 for 30 min for histamine measurement.
(§1) Supernatants were collected and histamine was quantified using the Histamine Dynamic HTRF kit (Cisbio). TNF-α, IL-6, or IL-10 were quantified using specific cytokine ELISA kits. Kits were used according to the manufacturer's instructions.
Considering the aminopeptidase function of TRAP, we wondered if its catalytic activity was required for efficient cytokine secretion. To test this, we treated mast cells with the IRAP inhibitors HFI-419, 4u 55 and 22b (a gift from E. Stratikos) for 24 h prior to ionomycin/PMA activation.

IRAP wt mice = test: Mouse ear challenge with arachidonic acid, cytokines quantified in ear tissue homogenates; assay type: in vivo; conditions: 1 μmol/kg intravenously at 24 h and 15 min prior to ear challenge; ear tissue homogenates normalized to total protein; FIG. 3
Protocol: IRAP wt mice were injected i.v. with 6 μg HI-419 or vehicle 24 h and 15 min prior to ear challenge. Cytokine concentrations were quantified in ear tissue homogenates and normalized to total protein concentration.
Twenty microliters arachidonic acid (AA) (30 mg/ml in acetone) were applied to the inner and outer surface of one mouse ear, whereas the other ear was left untreated.
One hour after AA application, mice were sacrificed and ears were collected. The ear biopsies were dissociated using the pre-set “Protein” protocol of gentleMACS™ Octo Dissociator (Milteniy Biotec) in 800 μl ice-cold homogenization buffer [(PBS containing 0.4M NaCl, 0.05% Tween-20, 10 mM EDTA and protease inhibitor cocktail complete (Roche)]. The homogenates were cleared by 10 min centrifugation at 5000×g, and the total protein concentration determined in a BCA assay. Histamine or cytokines in the supernatant were quantified as described below.
as §1
(§2) Vehicle or inhibitor at a dose of 1 μmol/kg was administered intravenously at 24 h and 15 min prior to the ear challenge. […] We therefore hypothesized that in addition to blocking its catalytic activity, HI-419 may also affect the stability of IRAP.

IRAP [1] = molecular target: T1, IRAP (Mus musculus, UniProt Q8C129); test: Intracellular flow cytometry staining of IRAP expression after HFI-419 treatment; assay type: cell-based; conditions: starting from 24 h of treatment, data not shown
T1 construct: endogenous in cells; host or cells: primary mouse mast cells (BMMC / peritoneal cell-derived mast cells) from wt mice
T1 sequence (Q8C129 1-1025): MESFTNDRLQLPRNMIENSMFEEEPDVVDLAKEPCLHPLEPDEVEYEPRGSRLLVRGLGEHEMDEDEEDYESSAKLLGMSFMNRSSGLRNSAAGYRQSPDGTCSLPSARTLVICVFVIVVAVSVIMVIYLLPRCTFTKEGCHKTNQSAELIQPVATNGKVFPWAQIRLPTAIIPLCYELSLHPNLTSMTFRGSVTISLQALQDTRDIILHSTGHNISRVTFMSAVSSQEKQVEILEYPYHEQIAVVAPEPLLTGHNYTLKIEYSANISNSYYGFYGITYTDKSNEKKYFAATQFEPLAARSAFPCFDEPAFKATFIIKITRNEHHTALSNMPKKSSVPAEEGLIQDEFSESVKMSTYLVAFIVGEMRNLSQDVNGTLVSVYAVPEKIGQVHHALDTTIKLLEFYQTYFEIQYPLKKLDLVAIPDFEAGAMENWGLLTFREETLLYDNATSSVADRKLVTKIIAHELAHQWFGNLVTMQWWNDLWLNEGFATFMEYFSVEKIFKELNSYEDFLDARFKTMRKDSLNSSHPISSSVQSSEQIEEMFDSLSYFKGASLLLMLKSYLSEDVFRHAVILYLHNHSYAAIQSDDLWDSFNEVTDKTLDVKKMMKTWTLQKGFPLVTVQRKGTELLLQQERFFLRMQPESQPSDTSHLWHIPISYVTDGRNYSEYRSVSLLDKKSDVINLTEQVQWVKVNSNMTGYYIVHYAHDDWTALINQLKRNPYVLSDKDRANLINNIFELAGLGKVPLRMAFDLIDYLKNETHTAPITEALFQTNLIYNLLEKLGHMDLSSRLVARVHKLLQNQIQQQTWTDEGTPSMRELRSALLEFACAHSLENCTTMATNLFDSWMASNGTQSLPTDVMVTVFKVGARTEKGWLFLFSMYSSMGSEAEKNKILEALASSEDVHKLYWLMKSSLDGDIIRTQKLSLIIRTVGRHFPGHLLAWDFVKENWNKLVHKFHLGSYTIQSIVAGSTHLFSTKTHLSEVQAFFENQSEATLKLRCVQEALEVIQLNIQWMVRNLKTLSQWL
Protocol: (§3) For TNF-α surface staining, PCMCs were stimulated with 1 μM ionomycin/10 nM PMA or 100 ng/ml LPS at 37° C. for 4 h in the presence of TAPI-1, washed with ice-cold PBS, and incubated at 4° C. with Fcblock (Miltenyi) followed by fluorochrome-conjugated CD117, FcεRI and TNF-α antibodies diluted in PBS-1% BSA. Intracellular staining of cytokines, IRAP and VAMP3 was performed using the BD intracellular staining kit and suitable species-specific fluorescent secondary antibodies (Life technologies).
as §2

VAMP3 = test: Intracellular flow cytometry staining of VAMP3 expression after HFI-419 treatment; assay type: cell-based, mouse; conditions: starting from 24 h of treatment, data not shown
Protocol: as §3, §2

wt cells (mast cells) = test: TNF-α secretion in the presence of endocytosis inhibitors; assay type: cell-based, mouse; conditions: wt versus IRAPko cells; data not shown
IRAP [2] = test: Subcellular localization of IRAP under endocytosis inhibition after LPS activation; assay type: cell-based, mouse; conditions: after three hours of LPS activation; data not shown

| SMILES | inhibition of IRAP-dependent cytokine secretion in vitro (mast cells) | IL-6 secretion in challenged ear versus vehicle-treated animals (IRAP wt mice) | IL-10 secretion in challenged ear versus vehicle-treated animals (IRAP wt mice) | TNF-α secretion in challenged ear versus vehicle-treated animals (IRAP wt mice) | expression level of IRAP (IRAP [1]) | expression level of IRAP (IRAP [1]; listed as HI-419) | expression level of VAMP3 (VAMP3) | TNF-α secretion (wt cells (mast cells)) | IRAP subcellular localization (re-internalization) (IRAP [2]) |
| --- | --- | --- | --- | --- | --- | --- | --- | --- | --- |
| CCOC(=O)C1=C(NC(C)=O)Oc2cc(O)ccc2C1c1cccnc1 (racemic) [HFI-419, (±)-Ethyl-2-acetamido-7-hydroxy-4-(pyridin-3-yl)-4H-chromene-3-carboxylate] | significant inhibition | significantly less | unaffected | significantly less | decreased expression levels | reduced | decreased expression levels | – | – |
| CS(=O)(=O)N1CCN(Cc2cc3nc(-c4cccc5[nH]ncc45)nc(N4CCOCC4)c3s2)CC1 [GDC-0941] | – | – | – | – | – | – | – | reduce TNF-α secretion specifically in wt cells | – |
| O=C(N/N=C/c1ccc(O)c(O)c1)c1cc2ccccc2cc1O [dynasore] | – | – | – | – | – | – | – | reduce TNF-α secretion specifically in wt cells | strong plasma membrane staining |
